Among the data in ChEMBL document CHEMBL1139571, “Synthesis and characterization of azole isoflavone inhibitors of aromatase” (Bioorg Med Chem Lett, 2005) are IC50 values, retold here.

The structures appear in SMILES notation.

For the test, the target named is T1, Aromatase (Homo sapiens, UniProt P11511).
T1 sequence (P11511 whole entry): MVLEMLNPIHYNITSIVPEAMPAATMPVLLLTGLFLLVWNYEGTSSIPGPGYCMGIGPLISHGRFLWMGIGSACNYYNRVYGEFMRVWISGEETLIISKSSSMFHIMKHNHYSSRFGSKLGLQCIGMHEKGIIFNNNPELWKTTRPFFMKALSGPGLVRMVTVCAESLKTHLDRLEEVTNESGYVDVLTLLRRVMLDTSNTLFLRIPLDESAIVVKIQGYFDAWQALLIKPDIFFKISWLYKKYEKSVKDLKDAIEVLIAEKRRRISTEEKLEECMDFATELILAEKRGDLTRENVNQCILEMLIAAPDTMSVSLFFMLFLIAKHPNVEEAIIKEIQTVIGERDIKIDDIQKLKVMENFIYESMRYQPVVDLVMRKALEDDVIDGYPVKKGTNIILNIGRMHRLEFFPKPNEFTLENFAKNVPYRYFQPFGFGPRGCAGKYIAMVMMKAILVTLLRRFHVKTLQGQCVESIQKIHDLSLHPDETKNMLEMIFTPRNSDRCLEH
Description: Inhibitory concentration against human placental aromatase by deutirium oxide release

In general, IC50 refers to the concentration needed to halve the response being measured. Low values mean greater potency in that assay, high ones weaker potency in that assay. On to `COc1ccc2c(=O)c(-c3ccccc3)c(Sc3nccn3C)oc2c1`, for which the IC50 is above 50 µM.
